For test [1], the system named is platelets. Briefly: Plasma clot formation by activated platelets or their membranes. The class given is cell-based, human. To be noted: platelets activated with thrombin for 2 hours, FIG. 5.
For test [2], the system named is TF pre-mRNA splicing in platelets. Description: TF pre-mRNA splicing in platelets (PCR). It counts as cell-based, human. Conditions: for pre-mRNA splicing events in platelets: commonly used medications in patients. The source says:
TF pre-mRNA splicing may be measured by any method known in the art, including, but not limited to, PCR using primers that target sequences in exon four (5′-[…]-3′; SEQ ID NO: 1) and five (5′-[…]-3′; SEQ ID NO: 2), and thus span intron four^3. Likewise, detection of full-length mature mRNA for human TF (mHTF) in platelets may be measured using any method known in the art, including, but not limited to, using primers targeting sequences in exon one (5′-[…]-3′; SEQ ID NO: 3) and exon six (5′-[…]-3′; SEQ ID NO: 4). In light of the disclosure herein, a person of ordinary skill in the art may select and use alternative primers based on the sequence of the gene/RNA^54. Primer design may be aided by the use of available computer programs, such as OLIGO™ (available from Hitachi Software), Primer3 (available online from the University of Massachusetts Medical School), GeneFisher (available online from the Universitat Bielefeld, Germany), or OligoAnalyzer (available from Integrated DNA Technologies, Inc.).
Platelets were isolated from each patient within 48 hours of admission to the ICU and TF mRNA expression patterns were characterized in each patient. In addition, clinical data for each patient including age and gender, admission diagnoses, APACHE II score, laboratory and microbiology results, and mortality were also collected. When feasible, platelets were also isolated from blood that was obtained on days three, five, and ten. The blood samples were processed immediately. Pre-mRNA splicing was also evaluated in platelets isolated from healthy volunteers (age 18-50) that were not taking medications. Platelets isolated from patients with sepsis and routine healthy control donors were processed in parallel.
Platelets from healthy subjects were left quiescent or activated with α-toxin (10 ng/ml; List Biological Laboratories Inc.) or lipopolysaccharide (LPS; 100 ng/ml; Sigma), toxins produced by gram-positive Staph. aureus and gram-negative E. Coli, respectively. Platelets were kept quiescent or activated in suspension with MRSA or E. coli at a bacteria to platelet ratio of 1:10. The bacteria were obtained from blood cultures from sepsis patients by ARUP, a national reference laboratory under standard conditions. For these studies, the bacteria were swiped from the culture plate, re-suspended, and the desired concentration was adjusted against a standard solution using a colorimeter (Vitek Colorimeter, bioMéreux, Inc.).

Another test deals with SRPK1 (Homo sapiens, UniProt Q96SB4). Conditions: concentrations up to 1 μM; cited from earlier work.
Another test concerns the target SRPK2 (Homo sapiens, UniProt P78362). To be noted: concentrations up to 1 μM; cited from earlier work.
In the next test the test system is PKA. To be noted: concentrations up to 1 μM; cited from earlier work.
A further test relates to PKC. Conditions: concentrations up to 1 μM; cited from earlier work.
Test [3] deals with platelets. Conditions: cited from earlier work.

Sequence of SRPK2 (P78362 whole entry, species assumed): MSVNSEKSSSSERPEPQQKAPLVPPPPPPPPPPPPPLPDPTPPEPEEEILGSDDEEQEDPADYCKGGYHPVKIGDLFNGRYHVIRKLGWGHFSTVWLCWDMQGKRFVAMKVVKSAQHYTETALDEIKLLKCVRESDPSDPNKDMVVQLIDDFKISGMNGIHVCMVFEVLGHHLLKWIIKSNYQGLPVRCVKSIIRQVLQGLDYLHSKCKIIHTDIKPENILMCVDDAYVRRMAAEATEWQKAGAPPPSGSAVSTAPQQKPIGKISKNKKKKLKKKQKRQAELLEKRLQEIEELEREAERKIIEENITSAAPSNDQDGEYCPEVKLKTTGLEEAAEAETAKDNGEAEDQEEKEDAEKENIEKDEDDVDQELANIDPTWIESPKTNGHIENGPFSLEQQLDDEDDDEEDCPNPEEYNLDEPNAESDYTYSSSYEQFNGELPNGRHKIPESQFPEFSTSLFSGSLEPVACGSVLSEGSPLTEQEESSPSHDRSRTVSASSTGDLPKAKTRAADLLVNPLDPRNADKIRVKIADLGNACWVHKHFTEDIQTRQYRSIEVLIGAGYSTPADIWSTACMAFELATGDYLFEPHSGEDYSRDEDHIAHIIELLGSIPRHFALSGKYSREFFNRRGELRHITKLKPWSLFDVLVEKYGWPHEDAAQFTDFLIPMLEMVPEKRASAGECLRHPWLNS
Sequence of SRPK1 (Q96SB4 whole entry, species assumed): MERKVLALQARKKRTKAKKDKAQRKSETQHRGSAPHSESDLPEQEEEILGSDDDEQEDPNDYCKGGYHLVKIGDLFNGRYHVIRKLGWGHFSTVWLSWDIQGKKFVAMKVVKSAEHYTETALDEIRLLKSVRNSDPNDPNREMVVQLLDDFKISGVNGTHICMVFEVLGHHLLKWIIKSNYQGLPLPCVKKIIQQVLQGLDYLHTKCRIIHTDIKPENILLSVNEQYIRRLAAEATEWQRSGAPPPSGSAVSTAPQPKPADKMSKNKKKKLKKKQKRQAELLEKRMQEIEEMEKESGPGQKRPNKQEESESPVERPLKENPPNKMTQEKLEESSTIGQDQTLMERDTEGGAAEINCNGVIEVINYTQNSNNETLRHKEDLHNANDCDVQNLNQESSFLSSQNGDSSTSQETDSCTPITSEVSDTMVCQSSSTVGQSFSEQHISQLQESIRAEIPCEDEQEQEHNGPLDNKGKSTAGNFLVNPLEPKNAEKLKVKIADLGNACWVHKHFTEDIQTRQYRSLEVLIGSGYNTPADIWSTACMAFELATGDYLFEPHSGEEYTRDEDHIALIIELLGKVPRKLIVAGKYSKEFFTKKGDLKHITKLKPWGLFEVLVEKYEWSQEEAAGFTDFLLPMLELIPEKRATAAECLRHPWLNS

Consider `CCN1/C(=C/C(C)=O)Sc2ccc(OC)cc21` [Tg003, (Z)-1-(3-Ethyl-5-methoxy-2,3-dihydrobenzothiazol-2-ylidene)propan-2-one], for which the plasma clot formation result with platelets [1] is reported as “reduces clot formation”. For the same compound, the pre-mRNA splicing result in test [2] (platelets activated with thrombin, FIG. 5) is “blocks pre-mRNA splicing”. For the same compound, the “effect on SRPK1 activity” value at SRPK1 was “does not affect”. In addition, the “effect on SRPK2 activity” value on SRPK2 is on record as “does not affect”. Also, the “effect on PKA activity” value in the test on PKA is “does not affect”. The “effect on PKC activity” value in the test on PKC is on record as “does not affect”. In addition, the “platelet adhesion, spreading, and aggregation” value in the test with platelets [3] is reported as “does not alter”.
In the case of lipopolysaccharide [LPS], in test [2] (platelets from healthy volunteers, 2 hours, FIGS. 11 and 12), the “induction of TF pre-mRNA splicing” value was “induced TF pre-mRNA splicing”.
Regarding `CC(=O)Oc1ccccc1C(=O)O` [Aspirin], the “pre-mRNA splicing events in platelets” value in test [2] is “do not affect”. Besides, in test [2] (platelets of elderly subject taking aspirin 325 mg daily, thrombin 0.05 U/ml for 1 hour, FIG. 2), the “signal-dependent TF pre-mRNA splicing” value is recorded as “does not block”.
On to `CC(=O)CC(c1ccccc1)c1c(O)c2ccccc2oc1=O` (stereo not drawn) [warfarin], for which the “pre-mRNA splicing events in platelets” value in test [2] was “do not affect”.
Take heparin: the “TF pre-mRNA splicing” value in test [2] (platelets of septic patients who received heparin to prevent VTE) is on record as “does not block”.

These data come from US20140099634A1, “USE OF PRE-MRNA SPLICING IN PLATELET CELLS FOR THE DIAGNOSIS OF DISEASE” (priority 2007, published 2014).
